Experiments:
[1] = tested on: Rat CC14 liver damage model; assay: Rat CC14 liver damage model (chronic liver fibrosis); assay type: in vivo, SD rat; set-up: Liver parameters: unit not given here; details: Gan-li-xin 25 mg/kg iv, once a day for 2 weeks from week 5
Protocol: To evaluate the protective effect of peptide SEQ ID NO:1 on liver damage, we used chronic liver fibrosis model (rat CC14 model) for efficacy evaluation.
Rat CC14 liver damage model
(1) Control group: saline, sc, 2 ml/kg, 10 rats
(2) model group: 40% CC14, sc, 2 ml/kg, 17 rats
(3) Gan-li-xin group: 25 mg/kg, iv, 10 ml/kg, 15 rats
(4) Prevention, high dose group: 50 μg peptide SEQ ID NO:1/kg, iv, 10 ml/kg, 17 rats
(5) Prevention, low dose group: 10 μg peptide SEQ ID NO:1/kg, iv, 10 ml/kg, 17 rats
(6) Treatment, high dose group: 100 μg peptide SEQ ID NO:1/kg, iv, 10 ml/kg, 17 rats
(7) Treatment, high dose group: 20 μg peptide SEQ ID NO:1/kg, iv, 10 ml/kg, 17 rats
Except for control group, inject 40% CC14 subcutaneously twice (Tuesday, and Friday) every week in Group (2) to (6), drug volume (0.2 ml/100 g, the first time 0.5 ml/100 g). CC14 Model construction is 6 weeks. Parallel to the model construction, inject intravenously peptide SEQ ID NO:1 at 50 μg/kg and 10 μg/kg in group (4) and (5), respectively, once a day for 6 weeks. For Group (3), (6), and (7), starting from week 5, inject Gan-li-xin 25 mg/kg, peptide SEQ ID NO:1 at 100 μg/kg and 20 μg/kg, respectively, once a day, continuously for 2 weeks.
All rats were weighed once a week during model construction and drug injection. According to weight, the dose of drugs is adjusted. 24 hours after the last time of CC14 injection, liver weight parameters were examined.
Blood was extracted from femoral artery and serum was separated. The following parameters were examined: serum alanine aminotransferase (ALT), aspartate aminotransferase (AST), Bilirubin (TB), Alkaline phosphatase (ALP), total protein (TP), albumin (ALB), globulin (G), albumin/globulin ratio (A/G), glucose (GLU), total cholesterol (TCH), triglyceride (TG).
Liver homogenate: to examine cholesterol (TCH), triglyceride (TG), alanine aminotransferase (ALT), and aspartate aminotransferase (AST).
[…], dry at 110 C, examine Hydroxyproline (HPA).
Part of the liver is fixed in formalin for histology examination.

[2] = tested on: human stomach cancer SGC-7901; assay: Human stomach cancer SGC-7901 xenograph nude mice; assay type: in vivo; details: positive control, 25 mg/kg, once a week, 3 weeks
Protocol: (§1) Experimental animals: Female BALB/cA nude mice, age 35-40 days, weight 18-22 g, provided by Shanghai Silaike Experimental Animal Co. Ltd., certificate number: SOCK (Shanghai) 2007-0005.
(§2) The tumor of xenograph nude mice grew to 100˜300 mm^3. Tumor mice were divided into different groups for drug testing. In the experiment below, there were 12 nude mice in negative control group, and 6 nude mice in the group with tested drug. Tumor diameter was measured three times each week, and mice weight was measured at the same time.
(§3) T/C (relative tumor inhibition rate) % was calculated as below: • (1) tumor volume, TV, calculated as below: TV=½×a×b^2 • A and b are length and width. • (2) relative tumor volume, RTV, calculated as below: RTV=TVt/TV0. • TV0 ? is tumor volume at the beginning of drug use (d0), TVt is tumor volume at later time point. • (3) relative tumor inhibition rate T/C (%), calculate as below:
(§4) [formula] TRTV: treatment group RTV; CRTV: negative control RTV
Peptide SEQ ID No:1 was given through tail vain (IV), at dosing of 1 mg/kg, 0.5 mg/kg, 0.25 mg/kg, 0.125 mg/kg, and 0.0625 mg/kg, 6 times a week. 5-FU was positive control, at dosing of 25 mg/kg, once a week. Negative control was given saline solution. The xenograph nude mice were treated for 3 weeks.

[3] = tested on: liver cancer (H22); assay: Xenograph liver cancer nude mice model (H22); assay type: in vivo; details: H22, positive control, 10 mg/kg
Protocol: as §1, §2, §3, §4

[4] = tested on: human breast cancer MDA-MB-435; assay: Human breast cancer MDA-MB-435 xenograph nude mice; assay type: in vivo; details: positive control, 20 mg/kg, once a week, 4 weeks
Protocol: as §1, §2, §3, §4
Peptide SEQ ID No:1 was given through tail vein (IV), at dosing of 2 mg/kg, 1 mg/kg, 0.5 mg/kg, 6 times a week. Docetaxol was positive control, at dosing of 20 mg/kg, once a week. Negative control was given saline solution. The xenograph nude mice were treated for 4 weeks.

[5] = tested on: human lung cancer A549; assay: Human lung cancer A549 xenograph nude mice; assay type: in vivo; details: positive control, 20 mg/kg, once a week, 3 weeks
Protocol: as §1, §2, §3, §4
Peptide SEQ ID No:1 was given through tail vein (IV), at dosing of 0.5 mg/kg, 0.25 mg/kg, and 0.125 mg/kg, 6 times a week. Docetaxol was positive control, at dosing of 20 mg/kg, once a week. Negative control was given saline solution. The xenograph nude mice were treated for 3 weeks.

CC1(C)[C@@H](O[C@H]2O[C@H](C(=O)O)[C@@H](O)[C@H](O)[C@H]2O[C@@H]2O[C@H](C(=O)O)[C@@H](O)[C@H](O)[C@H]2O)CC[C@]2(C)[C@H]3C(=O)C=C4[C@@H]5C[C@@](C)(C(=O)O)CC[C@]5(C)CC[C@@]4(C)[C@]3(C)CC[C@@H]12.N.N [Gan-li-xin, Diammonium glycyrrhizinate, reference compound]
ALB (albumin), serum [1]: 17.9 ± 2.5 g/L | ALP (alkaline phosphatase), serum [1]: 351.6 ± 134.1 IU/L | ALT (alanine aminotransferase), serum [1]: 73.6 ± 25 IU/L | AST (aspartate aminotransferase), serum [1]: 253.3 ± 69.3 IU/L | Bilirubin, serum [1]: 3.3 ± 0.6 µmol/L | GLU (glucose), serum [1]: 5.4 ± 0.7 mmol/L | Liver parameters [1]: 4.4 ± 0.6 | Liver weight [1]: 11.6 ± 3.5 g | TCH (total cholesterol), serum [1]: 1.7 ± 0.5 mmol/L | TG (triglyceride), serum [1]: 0.7 ± 0.3 mmol/L | TP (total protein), serum [1]: 64.8 ± 5.4 g/L | hydroxyproline amount in rat liver [1]: 0.191 ± 0.038 ug/mg wet weight

O=c1[nH]cc(F)c(=O)[nH]1 [Peptide 5-FU, reference compound]
T/C(%) relative tumor inhibition rate [2]: 68.71%

CC(=O)O[C@H]1C(=O)[C@@]2(C)[C@H]([C@H](OC(=O)c3ccccc3)[C@]3(O)C[C@H](OC(=O)[C@H](O)[C@@H](NC(=O)c4ccccc4)c4ccccc4)C(C)=C1C3(C)C)[C@]1(OC(C)=O)CO[C@@H]1C[C@@H]2O [Taxol, reference compound]
inhibition rate, tumor [3]: ~67.8%

CC(=O)O[C@@]12CO[C@@H]1C[C@H](O)[C@@]1(C)C(=O)[C@H](O)C3=C(C)[C@@H](OC(=O)[C@H](O)[C@@H](NC(=O)OC(C)(C)C)c4ccccc4)C[C@@](O)([C@@H](OC(=O)c4ccccc4)[C@H]21)C3(C)C [docetaxel, reference compound]
T/C(%) relative tumor inhibition rate [4]: 16.51% | T/C(%) relative tumor inhibition rate [5]: 18.60%

— patent US8637467B2, “Pharmaceutical being used for treating cancer and fibrosis disease and the composition and uses thereof” (Wuxi MTLH Biotechnology Co., Ltd., priority 2008, dated 2014)
